# From patent US7285564B2, “Substituted 4-amino-1-(pyridylmethyl)piperidine and related compounds” (Theravance, Inc., priority 2002, dated 2007)
# Molecular target: T1, hM2 receptor (Homo sapiens, UniProt P08172)
# T1 construct: expressed in transfected cells; membranes prepared
# T1 sequence (P08172 1-466): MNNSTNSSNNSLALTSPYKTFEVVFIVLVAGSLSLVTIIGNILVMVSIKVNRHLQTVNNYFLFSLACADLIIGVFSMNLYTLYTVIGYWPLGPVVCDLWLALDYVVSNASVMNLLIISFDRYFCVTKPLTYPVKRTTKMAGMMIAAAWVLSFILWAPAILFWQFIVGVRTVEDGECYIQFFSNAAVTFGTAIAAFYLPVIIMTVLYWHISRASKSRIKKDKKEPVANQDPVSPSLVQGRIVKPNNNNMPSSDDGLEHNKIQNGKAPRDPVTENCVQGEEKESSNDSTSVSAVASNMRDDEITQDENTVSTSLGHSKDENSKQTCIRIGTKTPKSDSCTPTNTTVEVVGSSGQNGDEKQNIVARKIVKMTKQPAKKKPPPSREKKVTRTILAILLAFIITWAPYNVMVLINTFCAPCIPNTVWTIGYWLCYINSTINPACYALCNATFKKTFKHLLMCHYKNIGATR
# Assay: Blockade of agonist-mediated inhibition of cAMP accumulation
# Type: cell-based
# Details: CHO-K1 cells expressing the hM2 receptor; read-out: Ki for blockade of oxotremorine-inhibition of forskolin-mediated cAMP accumulation
# Experimental: In this assay, the functional potency of a test compound was determined by measuring the ability of the test compound to block oxotremorine-inhibition of forskolin-mediated cAMP accumulation in CHO-K 1 cells expressing the hM2 receptor.
# cAMP assays were performed in a radioimmunoassay format using the Flashplate Adenylyl Cyclase Activation Assay System with ^125]-cAMP (NEN SMP004B, PerkinElmer Life Sciences Inc., Boston, Mass.), according to the manufacturer's instructions.
# CHO-K1 cells stably expressing cloned human M2 muscarinic receptors were grown to near confluency in a 5% CO2, 37° C. incubator in medium consisting of HAM's F-12 supplemented with 10% FBS (Fetal Bovine Serum) and 250 μg/mL Geneticin. […] The cell pellet was then re-suspended in 10 mL dPBS, and the cells were counted with a Coulter Z1 Dual Particle Counter (Beckman Coulter, Fullerton, Calif.). […]
# Reactions were incubated for 10 minutes at 37° C. and stopped by addition of 100 μL ice-cold detection buffer. Plates were sealed, incubated overnight at room temperature and counted the next morning on a PerkinElmer TopCount liquid scintillation counter (PerkinElmer Inc., Wellesley, Mass.). The amount of cAMP produced (pmol/well) was calculated based on the counts observed for the samples and cAMP standards, as described in the manufacturer's user manual. […]
smiles,measurement,value
COc1ccncc1CN1CCC(N(CCCCCCCN2CC[C@@H](C(C(N)=O)(c3ccccc3)c3ccccc3)C2)C(C)C)CC1 [Example 1],Ki,< 1 nM
